The results in this text go back to patent EP3856749B1, “WATER-SOLUBLE, NON-AGGREGATED SILICON PHTALGCYANINE COMPOUND HAVING IN VITRO ANTICANCER EFFECT AGAINST CANCER TYPES OF LUNG, LIVER, BREST AND MELANOMA” (Karadeniz Teknik Universitesi, priority 2018, dated 2020).

The subject of one assay is pBR322 plasmid DNA. The assay can be described thus: Oxidative nuclease activity. Particulars: with oxidative agent (H2O2, AA, ME) under irradiation. Format: biochemical. The procedure:
Auxiliary reagents are added to H2O2, AA, ME medium so as to examine oxidative cleavage activities of the compounds.
In this study, pBR322 plasmid DNA is formed of buffer solution (50 mM Tris-HCl (pH 7)), auxiliary reagents and increasing concentrations of compounds, such that well contents are of 10 µL. The oxidative nuclease activity studies were performed under light irradiation. At the end of this period, after mixtures are incubated in darkness at 37 °C for an hour, reaction is stopped by means of above-mentioned methods and cleavage products are observed on the agarose gel under UV light.
Subsequent to the determination of hydrolytic nuclease activities of the compounds 7a and 3a, cleavage reactions are carried out by way of adding hydrogen peroxide (H2O2) (0.4 M), ascorbic acid (AA) (2.5 mM) and mercaptoethanol (ME) (0.4 M) so as to examine its oxidative cleavage capabilities with/without irradiation and the related results are given in Figure 4.

The test system of the next assay is topoisomerase II enzyme. The assay is described as follows: Topoisomerase II inhibition (relaxation method). Format: biochemical. As to conditions: 1 U Topo II, pBR322 plasmid DNA; 7a 12.5-37.5 µM; doxorubicin as standard. The procedure:
After incubation process, samples are loaded to 0.8 % of agarose gel, exposed to electrophoresis in the running buffer by applying 40 volts of current for 3 hours and forms obtained are observed on the agarose gel under UV light.

A further assay deals with CT-DNA. The assay is described as follows: Determination of DNA melting temperature. The class given is binding. Particulars: absorbance at 260 nm; CT-DNA alone 75.57 °C. The procedure: Studies pertaining to determination of DNA melting temperature is carried out by means of Cary 100 Bio UV-Visible Spectrophotometer with Varian Cary Temperature Controller unit.
(§1) The absorbance is measured at 260 nm at every 0.5 °C in the range of 60-90 °C by increasing temperature of the cell comprising the basin by 1 °C every minute by means of employing thermal melting program. Values Tm are automatically calculated by the device from t(°C)-Absorbance curve of CT-DNA drawn in the presence and absence of the compound depending on its absorbance in 260 nm.
as §1, with “program of DNA melting temperature of the compound 3a.” for “program.”, “3a” for “the compound”, “nm. While the melting temperature of CT-DNA is at 75.57 °C, the melting temperature of the compounds CT-DNA + 3a is at 81.82 °C. An increase at the melting temperatures strengthens the potential that the compounds becomes an intercalative agents.” for “nm.”

Consider “bis(3,5-bis{3-[3-(diethylmethylamino)phenoxy]propoxy}phenyl)methoxy)phthalocyaninato silicon (IV) Iodide [7a]”, for which the oxidative cleavage activity result in the assay on pBR322 plasmid DNA is on record as “significantly high cleavage activity”. Besides, the “topoisomerase II inhibition effect” value with topoisomerase II enzyme was “Effective results are observed compared to doxorubicin”. For the substance “bis(3,5-bis{3-[3-trimethylamino)phenoxy]propoxy}phenyl)methoxy)phthalocyaninato silicon (IV) Iodide [3a]”, the “melting temperature of CT-DNA + compound” value in the assay with CT-DNA is 81.82 °C.
